Test results reported in patent US5053418A, “Antiprotozoal agents” (Burroughs Wellcome Co., priority 1983, dated 1991).

Assays:
P.falciparum = assay: In vitro activity against P.falciparum: inhibition of 3H-adenosine/3H-hypoxanthine incorporation (modified Desjardins); type: cell-based; conditions: for inhibition at 0.625 µg/mL: 0.625 mg/L; for inhibition at 1.25 µg/mL: 1.25 mg/L; for inhibition at 6.25 pg/mL: 0.00000625 mg/L; for inhibition at 12.5 pg/mL: 0.0000125 mg/L; for ED50 for Clopidol (4-pyridinol) / ED50 for naphthoquinone: 2580 min
Procedure: Each of the two compounds to be tested were dissolved in ethanol at a concentration of 10 mg/L and serially diluted with RPMI 1640 medium and 10% (v/v) human plasma in microtitration plates. P.falciparum-parasitised and fresh blood cells were added together with ^3 H-adenosine or ^3 H-hypoxanthinein RPMI 1640 medium and 10% human plasma. The cultures were then incubated at 37° C. for 43 hours, harvested and the particulate contents collected on glass fibre filter papers which were washed copiously with water using a Cooke Microtiter System (Dynatech Labs. Europe); the filter papers were dried and the radioactivity measured using a scintillation counter. Infected, untreated and uninfected cultures were included as controls. Percent inhibition was correlated with dose to provide an IC50 for each drug alone.
For subsequent combination experiments the individual drug solutions and mixtures thereof were serially diluted.
By the method of Example 1 the effect of a number of naphthoquinone/clopidol (4-pyridinol) combinations on P.falciparum in vitro were determined.

P.yoelii = assay: In vivo effect on P.yoelii in mice (inhibition of parasitaemia)
Procedure: The naphthoquinone and the pyridinol were each suspended in 0.25% (w/v) celacol in water by milling for 16-24 hours at 26° C. The suspensions were subsequently serially diluted with 0.25% (w/v) celacol in water. At time 0, 0.1 ml of a suspension of 10^7 P.yoelii-parasitised red blood cells/ml of phosphate buffered saline were injected intravenously into 15-20 g mice through a tail vein. Groups of 5 mice per treatment were dosed orally at times 6, 22, 30, 46, 54, 70 and 78 hours with 0.2 ml of the drug suspension. Tail-blood smears were taken at 96 hours, stained with Giemsa and the percentage of red blood cells infected determined and compared to untreated, infected controls. Percent inhibition was correlated with dose to provide ED50 values for each drug alone. In subsequent experiments dilutions of the two drugs, alone and in combination were used, and the percentage inhibition of parasitaemia and ED50 values (of each drug at fixed concentrations of the other) were determined. The results are shown respectively in Tables V and VI. A number of combinations of clopidol (4-pyridinol) and naphthoquinones were assayed and compared with each drug alone for their antimalarial effect against P.yoelii in vivo by the method of Example 4.

in vivo = conditions: rat, acute oral, rats
Procedure: The acute oral LD50 's of compounds of formula (I) in rats were determined by standard techniques.

[1] = Plasmodium falciparum, naphthoquinone alone
[2] = Plasmodium falciparum, 4-pyridinol analogue alone

## O=C1C(O)=C(C2CCCC2)C(=O)c2ccccc21
P.falciparum; [1]
  inhibition at 0.625 µg/mL: 0%
  inhibition at 1.25 µg/mL: 2%

## CCC(C)(C)C1CCC(C2=C(O)C(=O)c3ccccc3C2=O)CC1 (stereo not drawn)
P.falciparum; [1]
  inhibition at 6.25 pg/mL: 31%
  inhibition at 12.5 pg/mL: 51%

## Cc1nc(C)c(Cl)c(O)c1Cl [Clopidol, 3,5-dichloro-2,6-dimethyl-4-pyridinol, reference compound]
P.falciparum; Plasmodium falciparum, 4-pyridinol alone, 0.80 mg/L
  inhibition at 0.8 µg/mL: 44%
P.falciparum; Plasmodium falciparum, 4-pyridinol alone, 1.6 mg/L
  inhibition at 1.6 µg/mL: 55%
P.falciparum; Plasmodium falciparum, 4-pyridinol alone, 3.2 mg/L
  inhibition at 3.2 µg/mL: 74%
P.falciparum; clopidol (4-pyridinol) alone, 0.10 mg/L, listed as 4-pyridinol
  % inhibition: 24%
P.falciparum; clopidol (4-pyridinol) alone, 0.20 mg/L, listed as 4-pyridinol
  % inhibition: 18%
P.falciparum; clopidol (4-pyridinol) alone, 0.40 mg/L, listed as 4-pyridinol
  % inhibition: 22%
P.falciparum; fixed naphthoquinone 0.0 mg/L (alone)
  ED50 for Clopidol (4-pyridinol): 1.18 (1.44 to 0.980) mg/L
P.falciparum; fixed naphthoquinone 0.00781 mg/L
  ED50 for Clopidol (4-pyridinol): 1.63 mg/L
P.falciparum; fixed naphthoquinone 0.0156 mg/L
  ED50 for Clopidol (4-pyridinol): 0.128 mg/L
P.falciparum; fixed naphthoquinone 0.0313 mg/L
  ED50 for Clopidol (4-pyridinol): 2.57 mg/L
P.falciparum; fixed naphthoquinone 0.0625 mg/L
  ED50 for Clopidol (4-pyridinol): 1.03 (14.2 to 0.405) mg/L
P.falciparum; fixed naphthoquinone 0.125 mg/L
  ED50 for Clopidol (4-pyridinol): 0.578 mg/L
P.falciparum; fixed naphthoquinone 0.250 mg/L
  ED50 for Clopidol (4-pyridinol): 0.074 mg/L
P.falciparum; fixed naphthoquinone 0.500 mg/L
  ED50 for Clopidol (4-pyridinol): 0.052 mg/L
P.falciparum; fixed naphthoquinone 1.00 mg/L
  ED50 for Clopidol (4-pyridinol): 0.0092 mg/L
P.falciparum; fixed naphthoquinone 2.00 mg/L
  ED50 for Clopidol (4-pyridinol): 0.00097 mg/L
P.falciparum; fixed naphthoquinone 4.00 mg/L
  ED50 for Clopidol (4-pyridinol): 0.00012 mg/L
P.yoelii; Plasmodium yoelii, po, 96 h, clopidol alone, 1.9 mg/Kg/dose, 7 doses
  inhibition in vivo at 1.9 mg/kg: 6%
P.yoelii; Plasmodium yoelii, po, 96 h, clopidol alone, 2.5 mg/Kg × 7
  inhibition in vivo at 2.5 mg/kg: 0%
P.yoelii; Plasmodium yoelii, po, 96 h, clopidol alone, 3.7 mg/Kg/dose, 7 doses
  inhibition in vivo at 3.7 mg/kg: 17%
P.yoelii; Plasmodium yoelii, po, 96 h, clopidol alone, 7.5 mg/Kg/dose, 7 doses
  inhibition in vivo at 7.5 mg/kg: 13%
P.yoelii; Plasmodium yoelii, po, 96 h, clopidol alone, 13 mg/Kg × 7
  inhibition in vivo at 13 mg/kg: 5%
P.yoelii; Plasmodium yoelii, po, 96 h, clopidol alone, 15 mg/Kg/dose, 7 doses
  inhibition in vivo at 15 mg/kg: 34%
P.yoelii; Plasmodium yoelii, po, 96 h, clopidol alone, 30 mg/Kg/dose, 7 doses
  inhibition in vivo at 30 mg/kg: 61%
P.yoelii; fixed naphthoquinone 0.000 (alone)
  ED50 for Clopidol (4-pyridinol): 22.5 (27.6 to 19.4) mg/Kg/dose
P.yoelii; fixed naphthoquinone 0.019
  ED50 for Clopidol (4-pyridinol): 13.8 (21.5 to 10.7) mg/Kg/dose
P.yoelii; fixed naphthoquinone 0.0375
  ED50 for Clopidol (4-pyridinol): 5.14 (6.22 to 4.23) mg/Kg/dose
P.yoelii; fixed naphthoquinone 0.075
  ED50 for Clopidol (4-pyridinol): 1.87 (2.45 to 1.30) mg/Kg/dose
P.yoelii; fixed naphthoquinone 0.15
  ED50 for Clopidol (4-pyridinol): 0.522 (0.946 to 0.0356) mg/Kg/dose

## CC(C)(C)C1CCCC(C2=C(O)C(=O)c3ccccc3C2=O)C1 (stereo not drawn)
P.falciparum; Plasmodium falciparum, naphthoquinone alone, 0.0500 mg/L
  inhibition at 0.05 µg/mL: 8%
P.falciparum; Plasmodium falciparum, naphthoquinone alone, 0.100 mg/L
  inhibition at 0.1 µg/mL: 24%

## CC(C)(C)C1CCC(C2=C(Cl)C(=O)c3ccccc3C2=O)CC1 (stereo not drawn) [2-(4-t-butylcyclohexyl)-3-chloro-1,4-naphthoquinone] [listing 1 of 2 here]
P.falciparum; Plasmodium falciparum, naphthoquinone alone, 0.0625 mg/L
  inhibition at 0.0625 µg/mL: 18%
P.falciparum; Plasmodium falciparum, naphthoquinone alone, 0.125 mg/L
  inhibition at 0.125 µg/mL: 14%
P.falciparum; Plasmodium falciparum, naphthoquinone alone, 0.25 mg/L
  inhibition at 0.25 µg/mL: 17%
P.falciparum; Plasmodium falciparum, naphthoquinone alone, 0.50 mg/L
  inhibition at 0.5 µg/mL: 31%
P.falciparum; Plasmodium falciparum, naphthoquinone alone, 1.0 mg/L
  inhibition at 1 µg/mL: 55%
P.falciparum; Plasmodium falciparum, naphthoquinone alone, 2.0 mg/L
  inhibition at 2 µg/mL: 75%

## CCCCCCCCCCCCCC1=C(O)C(=O)c2ccccc2C1=O [(CH2)12 Me]
P.falciparum; Plasmodium falciparum, naphthoquinone alone, 0.0078 mg/L
  inhibition at 0.0078 µg/mL: 4%
P.falciparum; Plasmodium falciparum, naphthoquinone alone, 0.0156 mg/L
  inhibition at 0.0156 µg/mL: 10%

## CC(C)(C)C1CCC(C2=C(Cl)C(=O)c3ccccc3C2=O)CC1 (stereo not drawn) [2-(4-t-butylcyclohexyl)-3-chloro-1,4-naphthoquinone] [listing 2 of 2 here]
P.falciparum; fixed clopidol 0.000 mg/L (alone)
  ED50 for naphthoquinone: 0.851 µg/mL
P.falciparum; fixed clopidol 0.00625 mg/L
  ED50 for naphthoquinone: 0.699 µg/mL
P.falciparum; fixed clopidol 0.0125 mg/L
  ED50 for naphthoquinone: 0.401 µg/mL
P.falciparum; fixed clopidol 0.0250 mg/L
  ED50 for naphthoquinone: 0.478 µg/mL
P.falciparum; fixed clopidol 0.0500 mg/L
  ED50 for naphthoquinone: 0.447 µg/mL
P.falciparum; fixed clopidol 0.100 mg/L
  ED50 for naphthoquinone: 0.287 µg/mL
P.falciparum; fixed clopidol 0.200 mg/L
  ED50 for naphthoquinone: 0.198 µg/mL
P.falciparum; fixed clopidol 0.400 mg/L
  ED50 for naphthoquinone: 0.155 µg/mL
P.falciparum; fixed clopidol 0.800 mg/L
  ED50 for naphthoquinone: 0.0801 µg/mL
P.falciparum; fixed clopidol 1.60 mg/L
  ED50 for naphthoquinone: 0.0303 µg/mL
P.falciparum; fixed clopidol 3.20 mg/L
  ED50 for naphthoquinone: 0.0075 µg/mL

## CCCc1nc(CCC)c(Br)c(O)c1Br [X = Br, R^3 = Pr, 3,5-dibromo-2,6-dipropyl-4-pyridinol]
P.falciparum; Plasmodium falciparum, 4-pyridinol analogue alone, 3.125 mg/L
  inhibition at 3.125 µg/mL: 9%
P.falciparum; Plasmodium falciparum, 4-pyridinol analogue alone, 6.25 mg/L
  inhibition at 6.25 µg/mL: 15%

## CC(C)(C)C1CCC(C2=C(O)C(=O)c3ccccc3C2=O)CC1 (stereo not drawn) [drawing 10]
P.falciparum; [1]
  inhibition at 6.25 pg/mL: 17%
  inhibition at 12.5 pg/mL: 13%

## CC(=O)OC1=C(C2CCC(C)(C)CC2)C(=O)c2ccccc2C1=O
P.falciparum; Plasmodium falciparum, naphthoquinone alone, 0.000750 mg/L
  inhibition at 0.00075 µg/mL: 0%
P.falciparum; Plasmodium falciparum, naphthoquinone alone, 0.00150 mg/L
  inhibition at 0.0015 µg/mL: 0%

## CC(C)(C)C1CCC(C2=C(O)C(=O)c3ccccc3C2=O)CC1 (stereo not drawn) [2-(4-t-butylcyclohexyl)-3-hydroxy-1,4-naphthoquinone]
P.falciparum; Plasmodium falciparum, naphthoquinone alone, 0.0000156 mg/L
  inhibition at 15.6 pg/mL: 0.5%
P.falciparum; Plasmodium falciparum, naphthoquinone alone, 0.0000325 mg/L
  inhibition at 32.5 pg/mL: 2%
P.falciparum; naphthoquinone alone, 0.00003125 mg/L
  % inhibition: 5%
In vivo
  LD50: > 1000 mg/kg

## Cc1nc(C)c(Br)c(O)c1Br [X = Br, R^3 = Me, 3,5-dibromo-2,6-dimethyl-4-pyridinol]
P.falciparum; Plasmodium falciparum, 4-pyridinol analogue alone, 0.125 mg/L
  inhibition at 0.125 µg/mL: 2%
P.falciparum; Plasmodium falciparum, 4-pyridinol analogue alone, 0.25 mg/L
  inhibition at 0.25 µg/mL: 14%

## CCCc1nc(CCC)c(Cl)c(O)c1Cl [X = Cl, R^3 = Pr, 3,5-dichloro-2,6-dipropyl-4-pyridinol]
P.falciparum; [2]
  inhibition at 0.625 µg/mL: 12%
  inhibition at 1.25 µg/mL: 24%

## CC(C)(C)C1CCC(C2=C(Cl)C(=O)c3ccccc3C2=O)CC1 (stereo not drawn) [drawing 6, 2-(4-t-butylcyclohexyl)-3-chloro-1,4-naphthoquinone]
P.falciparum; naphthoquinone alone, 0.125 mg/L
  % inhibition: 14%
P.falciparum; naphthoquinone alone, 0.25 mg/L
  % inhibition: 17%

## Cc1ccc(C2CCC(C3=C(O)C(=O)c4ccccc4C3=O)CC2)cc1C (stereo not drawn)
P.falciparum; Plasmodium falciparum, naphthoquinone alone, 0.000125 mg/L
  inhibition at 0.000125 µg/mL: 15%
P.falciparum; Plasmodium falciparum, naphthoquinone alone, 0.00025 mg/L
  inhibition at 0.00025 µg/mL: 30%
